In patent publication US9604931B2, “Nuclear receptor binding agents” (GTx, Inc., priority 2007, dated 2017):
“Also recorded” adds a separate entry of the source.

Legend:
[1] = target: ERα ligand binding domain (Homo sapiens, UniProt P03372); assay: Competitive [3H]-estradiol binding assay, ER-α (Example 21); conditions: 100 nM of compound; read-out: Percent Inhibition of [3H]-Estradiol Binding to ER-α
Description: (§1) ER binding affinity was determined via one of the following methods:
(§2) Briefly, the incubation mixture was filtered through a high affinity protein binding filter, and washed several times to remove any unbound radioactivity. The filter plate was air dried and sealed on the bottom.
(§3) Nonspecific binding was subtracted from total binding to yield specific binding.

[2] = target: ERβ ligand binding domain (Homo sapiens, UniProt Q92731); assay: Competitive [3H]-estradiol binding assay, ER-β (Example 21)
ERβ ligand binding domain, sequence (Q92731 whole entry, looked up, the tested form may be a part): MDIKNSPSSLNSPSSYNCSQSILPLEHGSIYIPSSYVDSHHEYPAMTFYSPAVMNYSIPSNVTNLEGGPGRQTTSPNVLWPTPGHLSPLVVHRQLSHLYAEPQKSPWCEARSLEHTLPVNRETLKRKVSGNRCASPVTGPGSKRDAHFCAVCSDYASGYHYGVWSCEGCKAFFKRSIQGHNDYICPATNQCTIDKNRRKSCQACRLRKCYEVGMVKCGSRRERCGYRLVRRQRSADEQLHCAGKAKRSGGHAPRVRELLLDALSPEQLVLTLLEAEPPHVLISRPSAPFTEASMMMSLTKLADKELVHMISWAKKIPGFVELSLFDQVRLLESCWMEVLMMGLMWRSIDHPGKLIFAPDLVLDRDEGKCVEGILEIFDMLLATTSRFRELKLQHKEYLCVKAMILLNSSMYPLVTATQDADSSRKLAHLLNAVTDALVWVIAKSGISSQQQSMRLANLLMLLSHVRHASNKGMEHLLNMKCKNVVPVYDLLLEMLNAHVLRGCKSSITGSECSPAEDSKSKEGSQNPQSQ
Description: as §1, §2, §3

ER-α = ER-α (Rattus norvegicus (Rat), UniProt P06211); assay type: cell-based; conditions: 100 nM compound compared to 1 nM estradiol
Description: COS or 293 cells were plated in DME without phenol red+10% cs FBS at 90,000 cells per well in 24 well plates, and were transfected with 0.25 μg of the vector “ERE-LUC”, where a firefly luciferase gene was driven by two estrogen responsive elements and 0.02 μg of the control CMV-LUC, Renilla where a luciferase gene was driven by a CMV promoter. […] All the receptors were cloned from rat tissue into the PCR3.1 vector backbone. Twenty four hours post transfection, cells were treated with compounds of this invention, estrogen, DHT, and other NRBAs or combinations thereof. Cells were harvested 48 hrs after transfection, and assayed for firefly and Renilla luciferase activity.

ER-β = ER-β (Rattus norvegicus (Rat), UniProt Q62986); assay: ER-β transactivation (ERE-LUC) in COS or 293 cells; assay type: cell-based
ER-β, sequence (Q62986 whole entry): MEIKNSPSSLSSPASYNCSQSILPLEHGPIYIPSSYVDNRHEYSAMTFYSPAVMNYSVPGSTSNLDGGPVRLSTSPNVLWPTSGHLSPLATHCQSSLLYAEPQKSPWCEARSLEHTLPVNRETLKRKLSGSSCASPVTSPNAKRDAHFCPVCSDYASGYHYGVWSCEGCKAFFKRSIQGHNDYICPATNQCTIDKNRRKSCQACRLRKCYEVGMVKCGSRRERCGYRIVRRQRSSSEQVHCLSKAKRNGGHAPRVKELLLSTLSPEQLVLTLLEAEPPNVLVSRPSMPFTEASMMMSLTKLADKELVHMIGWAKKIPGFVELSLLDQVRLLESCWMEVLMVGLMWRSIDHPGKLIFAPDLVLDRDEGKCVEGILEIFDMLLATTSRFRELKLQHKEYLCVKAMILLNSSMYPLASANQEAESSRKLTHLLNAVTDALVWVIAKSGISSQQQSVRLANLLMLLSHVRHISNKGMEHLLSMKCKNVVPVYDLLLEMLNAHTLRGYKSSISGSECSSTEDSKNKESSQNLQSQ

Cyp 3A and/or Cyp 2C9 = assay: Cyp inhibition (data not shown); assay type: in vitro ADME
[3] = system: Carrageenan-induced paw edema; assay: Carrageenan-induced paw edema; assay type: in vivo; conditions: per-oral, 1 hr prior to Carrageenan; measured 4 hours post-Carrageenan
Description: FIG. 14 depicts the effect of 12b on the edema volume which was induced by Carrageenan (i.e. Carrageenan-induced […] as an acute inflammation model).
To determine the anti-inflammatory effects of ER-β NRBAs in vivo, animal paws were injected with carrageenan, which elicits an acute local inflammatory response.

[4] = system: LNCaP prostate cancer cells; assay: 3H thymidine incorporation, LNCaP cells; assay type: cell-based; conditions: 6 days treatment
Description: (§4) The effects of treatment of an ER-β selective NRBA of this invention on cancer cell proliferation was examined using LNCaP prostate cancer cells and C-26 colon cancer cells. LNCaP or C-26 cells were plated in growth medium in 24 well and 6 well plates, respectively. LNCaP cells were treated for 6 days and C-26 cells were treated for 3 days at the indicated concentration. ^3H thymidine incorporation was measured at the end of treatment as an indicator of cell proliferation.

C-26 colon cancer cells = assay: 3H thymidine incorporation, C-26 cells; assay type: cell-based; conditions: 3 days treatment
Description: as §4

[5] = system: LNCaP cells and human prostate stromal cells xenograft; assay: LNCaP-stromal cell xenograft tumor growth; assay type: in vivo, nude mice; conditions: 30 mg/kg/day for 21 days
Description: Prostate tumor xenografts were established with LNCaP cells and human prostate stromal cells in nude mice to establish the in vivo anti-proliferative effects of these ER-β NRBAs. A 4:1 ratio (based on cell number) of LNCaP:stroma cells was injected subcutaneously in nude mice and allowed to grow until they attained 100 mm^3 in volume, as measured by calipers. […] Tumor volumes were measured twice a week and percent tumor volume calculated, after 10, 14 and 21 days.

uterus = assay: Uterotropic assay; conditions: 10 mg/kg/day orally, 3 days
Description: Statistical differences among groups were evaluated by one-way ANOVA. Rats were treated for 3 consecutive days and then sacrificed 24 h after the last dose. The body of the uterus was cut just above its junction with the cervix and at the junction of the uterine horns with the ovaries. The uterus was weighed with and without intrauterine fluid. Statistical comparisons were made between the weights of empty uteri.

[6] = system: Rat Aortic Smooth Muscle Cells (RASMC); assay: RASMC cell proliferation assay (WST-1); assay type: cell-based; conditions: 10 μM and 30 μM
Description: EC50 values were calculated using WinNonLin 5.0.1 using the inhibitory effect sigmoid Emax model.

ERα ligand binding domain, sequence (P03372 whole entry, looked up, the tested form may be a part): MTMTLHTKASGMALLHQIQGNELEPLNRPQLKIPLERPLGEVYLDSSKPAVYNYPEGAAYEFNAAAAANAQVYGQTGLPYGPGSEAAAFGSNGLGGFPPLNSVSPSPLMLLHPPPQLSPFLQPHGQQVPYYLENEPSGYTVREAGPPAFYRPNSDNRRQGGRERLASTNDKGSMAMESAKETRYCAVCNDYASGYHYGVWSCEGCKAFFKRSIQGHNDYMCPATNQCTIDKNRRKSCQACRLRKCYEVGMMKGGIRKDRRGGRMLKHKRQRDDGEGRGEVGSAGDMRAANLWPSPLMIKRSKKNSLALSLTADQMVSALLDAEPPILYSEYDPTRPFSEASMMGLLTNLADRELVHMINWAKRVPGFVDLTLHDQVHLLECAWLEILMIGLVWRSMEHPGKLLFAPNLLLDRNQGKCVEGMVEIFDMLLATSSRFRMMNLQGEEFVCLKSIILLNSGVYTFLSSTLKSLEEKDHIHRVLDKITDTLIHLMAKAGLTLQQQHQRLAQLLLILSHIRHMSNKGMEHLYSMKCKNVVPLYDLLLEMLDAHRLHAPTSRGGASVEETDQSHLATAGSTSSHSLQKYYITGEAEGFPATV

SMILES	inhibition at 0.1 µM [1] [%]	Ki Ratio (ER-α/ER-β) [2]	Ki ([2]; read-out: ER-β binding constant (Ki)) [nM]	inhibition at 0.1 µM ([2]; read-out: Percent Inhibition of [3H]-Estradiol Binding to ER-β) [%]	Estradiol activity at 100 nM of NRBA, ER-α (ER-α) [%]	ER-β agonist activity (ER-β)	activation at 0.1 µM (ER-β; HEK293, 48 h, read-out: Estradiol activity at 100 nM of NRBA, ER-β, 100 nM compound compared to 1 nM estradiol) [%]	Inhibition of Cyp 3A and/or Cyp 2C9 (Cyp 3A and/or Cyp 2C9)	Reduction in paw edema [3] [%]	Growth of LNCaP prostate cancer cells [4]	Growth of C-26 colon cancer cells (C-26 colon cancer cells)	Xenograft tumor growth [5]	Uterine weight / proliferation of uterus (uterus)	Toxicity to RASMC (cell numbers reduced compared to day 0) [6]
O=c1c2ccc(O)cc2c(Br)cn1-c1ccc(O)cc1 [12b, 4-bromo-6-hydroxy-2-(4-hydroxyphenyl)-isoquinolin-1(2H)-one]	0	20	49	53.6	31.2	ER-β agonists; also recorded: ER-β agonist activity	79	exception	53	significantly inhibited	significantly inhibited	inhibited the growth of tumor significantly		
CC/C(=C(\c1ccccc1)c1ccc(OCCN(C)C)cc1)c1ccccc1 [Tamoxifen, reference compound]													stimulated the proliferation of uterus significantly	toxicity
